# According to ChEMBL document CHEMBL5055679, “Discovery of a Novel Androgen Receptor Antagonist Manifesting Evidence to Disrupt the Dimerization of the Ligand-Binding Domain via Attenuating the Hydrogen-Bonding Network Between the Two Monomers” (J Med Chem, 2021):
# Activity calls are given as the source filed them. No cut-off for these calls is given here.
# How the values were obtained:
# [1] = biological target: T1, Mineralocorticoid receptor (Homo sapiens) (UniProt P08235); experiment: Antagonist activity at mineralocorticoid receptor in human PC-3 cells assessed as reduction in aldosterone-induced luciferase activity at 10 uM by dual-Glo luciferase assay; format: cell-based
# T1 sequence (whole entry): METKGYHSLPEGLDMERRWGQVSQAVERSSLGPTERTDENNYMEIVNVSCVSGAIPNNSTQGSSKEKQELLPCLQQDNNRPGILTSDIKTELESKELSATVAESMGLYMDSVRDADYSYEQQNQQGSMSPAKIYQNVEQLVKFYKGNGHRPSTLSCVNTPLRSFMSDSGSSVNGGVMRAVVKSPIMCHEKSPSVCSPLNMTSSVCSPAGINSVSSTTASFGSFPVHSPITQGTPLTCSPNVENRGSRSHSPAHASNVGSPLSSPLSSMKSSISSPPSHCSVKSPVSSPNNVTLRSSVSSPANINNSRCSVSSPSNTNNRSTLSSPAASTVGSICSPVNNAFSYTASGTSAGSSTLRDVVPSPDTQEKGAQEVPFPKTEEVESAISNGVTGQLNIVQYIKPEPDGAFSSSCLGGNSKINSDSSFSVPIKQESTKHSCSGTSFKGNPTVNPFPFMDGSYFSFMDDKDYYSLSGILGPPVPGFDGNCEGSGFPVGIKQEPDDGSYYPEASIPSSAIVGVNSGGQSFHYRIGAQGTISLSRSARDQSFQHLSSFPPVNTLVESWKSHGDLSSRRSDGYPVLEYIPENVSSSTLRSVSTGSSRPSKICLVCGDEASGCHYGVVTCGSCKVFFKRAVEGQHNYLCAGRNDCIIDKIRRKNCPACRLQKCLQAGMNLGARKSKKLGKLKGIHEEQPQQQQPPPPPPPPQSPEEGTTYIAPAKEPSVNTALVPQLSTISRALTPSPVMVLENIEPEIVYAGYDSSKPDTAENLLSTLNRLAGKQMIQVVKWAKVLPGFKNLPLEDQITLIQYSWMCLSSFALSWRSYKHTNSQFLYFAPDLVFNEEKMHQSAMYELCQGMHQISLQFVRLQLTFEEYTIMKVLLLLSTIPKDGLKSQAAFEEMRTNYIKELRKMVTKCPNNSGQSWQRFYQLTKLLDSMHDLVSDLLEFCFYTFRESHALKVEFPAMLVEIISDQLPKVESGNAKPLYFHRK
# [2] = system: MCF7; experiment: Cytotoxicity against human MCF7 cells assessed as reduction in cell viability at 50 uM incubated for 72 hrs by MTT assay; format: functional, cell-based
# [3] = biological target: T2, Glucocorticoid receptor (Homo sapiens) (UniProt P04150); experiment: Agonist activity at glucocorticoid receptor in human HeLa cells by dual-Glo luciferase assay; format: cell-based
# T2 sequence (whole entry): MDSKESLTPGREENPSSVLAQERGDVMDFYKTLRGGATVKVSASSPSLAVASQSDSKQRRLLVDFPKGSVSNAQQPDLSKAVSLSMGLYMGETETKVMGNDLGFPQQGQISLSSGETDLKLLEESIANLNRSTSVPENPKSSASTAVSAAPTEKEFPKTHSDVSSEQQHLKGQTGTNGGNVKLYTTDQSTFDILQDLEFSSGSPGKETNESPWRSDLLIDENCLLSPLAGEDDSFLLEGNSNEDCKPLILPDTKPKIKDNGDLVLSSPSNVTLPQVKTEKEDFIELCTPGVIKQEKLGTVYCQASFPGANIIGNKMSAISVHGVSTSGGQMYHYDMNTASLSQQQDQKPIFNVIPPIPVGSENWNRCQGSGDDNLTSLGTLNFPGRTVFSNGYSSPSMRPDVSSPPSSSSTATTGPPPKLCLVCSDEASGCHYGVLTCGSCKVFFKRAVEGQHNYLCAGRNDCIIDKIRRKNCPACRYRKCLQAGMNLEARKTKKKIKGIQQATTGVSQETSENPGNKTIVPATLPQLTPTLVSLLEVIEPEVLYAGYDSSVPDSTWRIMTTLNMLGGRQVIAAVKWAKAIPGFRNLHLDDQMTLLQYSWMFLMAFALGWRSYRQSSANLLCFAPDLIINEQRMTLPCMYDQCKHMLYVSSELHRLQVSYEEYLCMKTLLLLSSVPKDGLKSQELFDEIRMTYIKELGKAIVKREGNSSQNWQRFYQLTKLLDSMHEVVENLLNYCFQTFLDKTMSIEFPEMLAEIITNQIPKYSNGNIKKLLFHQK
# [4] = biological target: T1, Mineralocorticoid receptor (Homo sapiens); experiment: Agonist activity at mineralocorticoid receptor in human PC-3 cells by dual-Glo luciferase assay; format: cell-based
# [5] = biological target: T3, Glucocorticoid receptor (Homo sapiens, UniProt P04150); experiment: Antagonist activity at glucocorticoid receptor in human HeLa cells assessed as reduction in dexamethasone-induced luciferase activity by dual-Glo luciferase assay; format: cell-based
# T3 sequence (P04150 whole entry): T2 sequence (whole entry)
# [6] = system: HepG2; experiment: Cytotoxicity against human HepG2 cells assessed as reduction in cell viability at 50 uM incubated for 72 hrs by MTT assay; format: functional, cell-based
# [7] = biological target: T4, Androgen receptor (Homo sapiens, UniProt P10275); experiment: Inhibition of AR transcriptional activity in human LNCaP cells harboring ARR2PB-eGFP incubated for 72 hrs by fluorescence assay; format: cell-based
# T4 sequence (P10275 whole entry): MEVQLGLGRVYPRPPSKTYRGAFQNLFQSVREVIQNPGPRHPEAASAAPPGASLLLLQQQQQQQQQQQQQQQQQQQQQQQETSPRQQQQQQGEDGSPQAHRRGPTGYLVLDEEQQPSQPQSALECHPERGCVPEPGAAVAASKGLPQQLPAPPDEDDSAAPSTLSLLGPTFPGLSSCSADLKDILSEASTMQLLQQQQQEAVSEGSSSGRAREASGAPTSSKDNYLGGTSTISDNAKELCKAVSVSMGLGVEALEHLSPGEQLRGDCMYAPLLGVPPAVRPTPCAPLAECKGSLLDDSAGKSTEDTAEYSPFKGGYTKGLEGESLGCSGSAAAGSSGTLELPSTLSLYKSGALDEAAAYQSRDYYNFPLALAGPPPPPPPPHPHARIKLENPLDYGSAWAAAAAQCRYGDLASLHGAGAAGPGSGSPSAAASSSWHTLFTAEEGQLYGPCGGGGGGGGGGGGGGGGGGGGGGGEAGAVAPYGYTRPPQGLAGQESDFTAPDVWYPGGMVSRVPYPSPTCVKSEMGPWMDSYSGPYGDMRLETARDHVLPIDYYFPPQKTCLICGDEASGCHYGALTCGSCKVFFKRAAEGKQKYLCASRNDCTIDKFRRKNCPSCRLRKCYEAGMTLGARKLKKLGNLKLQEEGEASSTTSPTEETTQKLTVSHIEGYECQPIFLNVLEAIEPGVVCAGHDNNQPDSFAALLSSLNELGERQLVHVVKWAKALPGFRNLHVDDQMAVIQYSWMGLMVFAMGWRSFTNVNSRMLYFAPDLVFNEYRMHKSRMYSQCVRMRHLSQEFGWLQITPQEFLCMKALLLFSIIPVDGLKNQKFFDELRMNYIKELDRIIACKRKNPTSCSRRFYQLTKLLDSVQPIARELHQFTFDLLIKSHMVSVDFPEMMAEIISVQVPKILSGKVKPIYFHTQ
compound,measurement,setting,value
O=c1cc(C(F)(F)F)c2ccc(OCc3ccc(Br)cc3)cc2o1,Activity,[1],inactive
same,Activity,[2],Active
same,Activity,[3],inactive
same,Activity,[4],inactive
same,IC50,[5],> 10 µM
same,Activity,[6],Active
same,IC50,[7],170 nM
